The assay deals with GABAa receptor. The assay is described as follows: GABAa receptor binding, displacement of 3H-RO15-1788 [3H-Flumazenil]. The note with it: rat cortical tissue, 0.5 nM 3H-RO15-1788, 30 min at 4° C., pH 7.4. As to the method: The pharmaceutical utility of compounds of this invention are indicated by the following assay for GABAa receptor activity.
Assays are carded out as described in Thomas and Tallman (J. Bio. Chem. 156: 9838-9842, J. Neurosci. 3: 433-440, 1983). Rat conical tissue is dissected and homogenized in 25 volumes (w/v) of 0.05M Tris HCl buffer (pH 7.4 at 4° C.). The tissue homogenate is centrifuged in the cold (4°) at 20,000×g for 20'. The supernatant is decanted and the pellet is rehomogenized in the same volume of buffer and again centrifuged at 20,000×g. The supernatant is decanted and the pellet is frozen at -20° C. overnight. The pellet is then thawed and rehomogenized in 25 volume (original wt/vol) of buffer and the procedure is carded out twice. The pellet is finally resuspended in 50 volumes (w/vol of 0.05M Tris HCl buffer (pH 7.4 at […]).
Incubations contain […] of tissue homogenate, […] of radioligand 0.5 nM (3H-RO15-1788 [^3 H-Flumazenil] specific activity 80 Ci/mmol), drug or blocker and buffer to a total volume of […]. Incubations are carried for 30 min at 4° C. then are rapidly filtered through GFB filters to separate free and bound ligand. Filters are washed twice with fresh 0.05M Tris HCl buffer (pH 7.4 at 4° C.) and counted in a liquid scintillation counter. 1.0 mM diazepam is added to some tubes to determine nonspecific binding. Data are collected in triplicate determinations, averaged and % inhibition of total specific binding is calculated. Total Specific Binding=Total-Nonspecific. In some cases, the amounts of unlabeled drugs is varied and total displacement curves of binding are carded out. Data are converted to a form for the calculation of IC50 and Hill Coefficient (nH).

Molecules are shown by their SMILES.

Compound `O=c1[nH]c2c(n1-c1nc3ccc(F)cc3o1)CCCCC2` [Compound 2] yielded a Ki of 4.6 nM.

As for `COc1ccc2oc(-n3c4c([nH]c3=O)CCCC4)nc2c1` [Compound 6], the Ki was 81 nM.

Consider `O=c1[nH]c2cc(F)ccc2n1-c1nc2cccc(F)c2o1` [Compound 3, 3-(2-(7-fluorobenzoxazyl))-6-fluorobenzimidazol-2-(1H)-one], for which the Ki was found to be 14 nM.

`O=c1[nH]c2cc(F)ccc2n1-c1nc2ccc(F)cc2o1` [Compound 4, 3-(2-(6-fluorobenzoxazyl))-6-fluorobenzimidazol-2-(1H)-one] came in with a Ki of 25 nM. Against the preceding compound, the Ki is about 1.8-fold higher. The same measure for `O=c1[nH]c2c(n1-c1nc3ccc(F)c(F)c3o1)CCCCC2` [Compound 1]: 3 nM. For `O=c1[nH]c2c(n1-c1nc3ccc(F)c(F)c3o1)CCCC2` [Compound 5] the value was 21 nM.

A word on the Ki: it is the equilibrium dissociation constant of an inhibitor or competing ligand from its target. Higher therefore signals lower affinity.

Source of the values: US5637724A (priority 1995, dated 1997).
